Where two headings read alike, the source gives them in different places.
Columns and labels:
[1] = system: mouse ear edema induced by TPA; type: in vivo, ICR-strain male mouse; conditions: topical, measured 6 hours after TPA
Procedure: This test was carried out referring to the methods of Carlson, R. P., et al. [Agents and Actions 17 (2): 197-204 (1985)] and of Chang, J., et al. [European Journal of Pharmacology 142: 197-205 (1987)]: 5 μg/20 μL of TPA (Sigma Chemical Co., Ltd.) dissolved in ethanol was applied on the anterior and posterior surfaces of the right ear of an ICR-strain male mouse (6 to 7 weeks old). The thickness of a specific area of each of the ears was measured 3 times by a digimatic micrometer 6 hours after the application. The mean values were calculated. Ear edema was determined by subtracting the mean thickness of the non-treated left ear from that of the TPA-applied right ear. A topical application activity was evaluated in a way that an acetone solution or a 0.1% Tween 80/acetone solution of a compound of the present invention was applied on the anterior and posterior surfaces of the right ear 30 minutes before and 15 minutes after the application of TPA. […] An oral administration activity was evaluated by forced oral administration of a suspension of a compound of the present invention in 2% Tween 80/distilled water an hour before applying TPA. […]

[2] = system: acetic acid induced writhes; experiment: Acetic acid writhing; type: in vivo, ICR-strain male mouse; conditions: i.p., 30 minutes before, vehicle control 25.2 ± 2.2
Procedure: This test was carried out referring to the methods of Inoue, K., Motonaga, A. and Nishimura, T. [Arzneimittel Forshung/Drug Research 41 (1): 235-239 (1991)] and of Murata, T., et al. [Nature 388: 678-682 (1997)]: 7.5 mL/kg of a 0.9% aqueous solution of acetic acid was injected intraperitoneally into an ICR-strain male mouse (6 to 8 weeks old). The number of induced writhes (characteristic behavior of contracting the abdomen, twisting the body and/or extending the hind legs in agony) was counted in a period between 10 minutes and 20 minutes after the injection. A compound of the present invention was homogeneously suspended in 2% Tween 80/saline for injection use and injected intraperitoneally 30 minutes before the induction of stimulation by the acetic acid injection. Alternatively the compound was homogeneously suspended in 2% Tween 80/distilled water and orally administered an hour before the stimulation induction by the acetic acid injection. The analgesic activity of the compound of the present invention was evaluated on the basis of how many writhes were suppressed by the administration. Indomethacin or aspirin was administered as the positive control.

SMILES: COc1ccc2c(c1)c(CC(=O)O)c(C)n2C(=O)c1ccc(Cl)cc1 [Indomethacin, indomethacin]
- Ear edema inhibition (%) ([1]; 3 mg/40 μL/ear × 2): 63.5%
- No. of writhes (mean ± S.E.) ([2]; 3 mg/kg): 13.8 ± 3.0
- No. of writhes (mean ± S.E.) ([2]; 10 mg/kg): 4.8 ± 0.9

SMILES: CC(=O)OCC(=O)[C@@]1(O)[C@H](C)C[C@H]2[C@@H]3CCC4=CC(=O)C=C[C@]4(C)[C@@]3(F)[C@@H](O)C[C@@]21C [DEX-Ac, dexamediasone-21-acetate]
- Ear edema inhibition (%) ([1]; 1 mg/20 μL/ear × 2): 79.6%

SMILES: CC(=O)Oc1ccccc1C(=O)O [Aspirin, aspirin]
- No. of writhes (mean ± S.E.) ([2]; 30 mg/kg): 9.5 ± 2.0
